Biological target: MKNK2 (human) (UniProt Q9HBH9)
Assay: radiometric filter-binding kinase assay, Kinase HotSpot
Conditions: compound 0.5 µM; ATP 10 µM

Structure (SMILES) | residual activity
O=c1cc(N2CCOCC2)oc2c(-c3ccccc3)cccc12 | 103%
COc1cc2c(Nc3ccc(Br)cc3F)ncnc2cc1OCC1CCN(C)CC1 | 86.9%

Biological target: MST1R (human) (UniProt Q04912)
Assay: as above
Conditions: compound 0.5 µM; ATP 10 µM

Structure (SMILES) | residual activity
COc1cc2c(N3CCN(C(=O)Nc4ccc(OC(C)C)cc4)CC3)ncnc2cc1OCCCN1CCCCC1 | 99.2%
COc1cc2c(cc1OC)-c1[nH]nc(Nc3cccc(F)c3)c1C2 | 99.1%
O=c1cc(N2CCOCC2)oc2c(-c3ccccc3)cccc12 | 109%
COc1cc2c(Nc3ccc(Br)cc3F)ncnc2cc1OCC1CCN(C)CC1 | 93.6%

Biological target: MST4 (human) (UniProt Q9P289)
Sequence (Q9P289 whole entry, looked up): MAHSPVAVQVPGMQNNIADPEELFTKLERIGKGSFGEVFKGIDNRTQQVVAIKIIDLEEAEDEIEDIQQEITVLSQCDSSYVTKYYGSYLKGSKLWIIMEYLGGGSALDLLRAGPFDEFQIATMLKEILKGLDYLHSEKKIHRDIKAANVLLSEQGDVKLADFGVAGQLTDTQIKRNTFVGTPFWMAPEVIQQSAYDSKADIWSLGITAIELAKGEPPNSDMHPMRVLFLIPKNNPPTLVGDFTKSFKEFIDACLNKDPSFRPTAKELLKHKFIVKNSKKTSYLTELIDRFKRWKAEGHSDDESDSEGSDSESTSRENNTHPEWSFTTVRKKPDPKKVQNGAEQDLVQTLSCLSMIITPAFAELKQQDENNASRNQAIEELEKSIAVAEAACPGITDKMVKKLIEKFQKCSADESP
Assay: as above
Conditions: compound 0.5 µM; ATP 10 µM

Structure (SMILES) | residual activity
CN[C@@H]1C[C@H]2O[C@@](C)([C@@H]1OC)n1c3ccccc3c3c4c(c5c6ccccc6n2c5c31)C(=O)NC4 | 4.43%
COc1cc2c(N3CCN(C(=O)Nc4ccc(OC(C)C)cc4)CC3)ncnc2cc1OCCCN1CCCCC1 | 101%
COc1cc2c(cc1OC)-c1[nH]nc(Nc3cccc(F)c3)c1C2 | 97%
O=c1cc(N2CCOCC2)oc2c(-c3ccccc3)cccc12 | 97.2%
COc1cc2c(Nc3ccc(Br)cc3F)ncnc2cc1OCC1CCN(C)CC1 | 102%

Biological target: NEK7 (human) (UniProt Q8TDX7)
Sequence (Q8TDX7 whole entry, looked up): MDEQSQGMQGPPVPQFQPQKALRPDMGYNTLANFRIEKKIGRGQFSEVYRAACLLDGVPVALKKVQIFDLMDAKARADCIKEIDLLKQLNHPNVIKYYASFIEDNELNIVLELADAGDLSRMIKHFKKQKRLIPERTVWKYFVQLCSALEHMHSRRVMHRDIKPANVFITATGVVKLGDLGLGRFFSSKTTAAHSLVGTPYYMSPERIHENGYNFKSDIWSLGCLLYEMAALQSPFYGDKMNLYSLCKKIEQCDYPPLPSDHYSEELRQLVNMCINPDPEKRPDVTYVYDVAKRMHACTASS
Assay: as above
Conditions: compound 0.5 µM; ATP 10 µM

Structure (SMILES) | residual activity
COc1cc2c(N3CCN(C(=O)Nc4ccc(OC(C)C)cc4)CC3)ncnc2cc1OCCCN1CCCCC1 | 93.4%
COc1cc2c(cc1OC)-c1[nH]nc(Nc3cccc(F)c3)c1C2 | 100%
O=c1cc(N2CCOCC2)oc2c(-c3ccccc3)cccc12 | 92.1%
COc1cc2c(Nc3ccc(Br)cc3F)ncnc2cc1OCC1CCN(C)CC1 | 99%

Biological target: NUAK2 (human) (UniProt Q9H093)
Assay: as above
Conditions: compound 0.5 µM; ATP 10 µM

Structure (SMILES) | residual activity
COc1cc2c(N3CCN(C(=O)Nc4ccc(OC(C)C)cc4)CC3)ncnc2cc1OCCCN1CCCCC1 | 100%
COc1cc2c(cc1OC)-c1[nH]nc(Nc3cccc(F)c3)c1C2 | 94.6%
O=c1cc(N2CCOCC2)oc2c(-c3ccccc3)cccc12 | 95.1%
COc1cc2c(Nc3ccc(Br)cc3F)ncnc2cc1OCC1CCN(C)CC1 | 100%

Biological target: PAK1 (human) (UniProt Q13153)
Assay: as above
Conditions: compound 0.5 µM; ATP 10 µM

Structure (SMILES) | residual activity
COc1cc2c(N3CCN(C(=O)Nc4ccc(OC(C)C)cc4)CC3)ncnc2cc1OCCCN1CCCCC1 | 107%
COc1cc2c(cc1OC)-c1[nH]nc(Nc3cccc(F)c3)c1C2 | 96.9%
O=c1cc(N2CCOCC2)oc2c(-c3ccccc3)cccc12 | 97.8%
COc1cc2c(Nc3ccc(Br)cc3F)ncnc2cc1OCC1CCN(C)CC1 | 108%

Biological target: PASK (human) (UniProt Q96RG2)
Assay: as above
Conditions: compound 0.5 µM; ATP 10 µM

Structure (SMILES) | residual activity
COc1cc2c(N3CCN(C(=O)Nc4ccc(OC(C)C)cc4)CC3)ncnc2cc1OCCCN1CCCCC1 | 105%
COc1cc2c(cc1OC)-c1[nH]nc(Nc3cccc(F)c3)c1C2 | 93.3%
O=c1cc(N2CCOCC2)oc2c(-c3ccccc3)cccc12 | 90.2%
COc1cc2c(Nc3ccc(Br)cc3F)ncnc2cc1OCC1CCN(C)CC1 | 102%

Biological target: PIM3 (human) (UniProt Q86V86)
Assay: as above
Conditions: compound 0.5 µM; ATP 10 µM

Structure (SMILES) | residual activity
COc1cc2c(N3CCN(C(=O)Nc4ccc(OC(C)C)cc4)CC3)ncnc2cc1OCCCN1CCCCC1 | 100%
COc1cc2c(cc1OC)-c1[nH]nc(Nc3cccc(F)c3)c1C2 | 95.3%
O=c1cc(N2CCOCC2)oc2c(-c3ccccc3)cccc12 | 88.5%
COc1cc2c(Nc3ccc(Br)cc3F)ncnc2cc1OCC1CCN(C)CC1 | 96.1%

Biological target: PLK1 (human) (UniProt P53350)
Assay: as above
Conditions: compound 0.5 µM; ATP 10 µM

Structure (SMILES) | residual activity
COc1cc2c(N3CCN(C(=O)Nc4ccc(OC(C)C)cc4)CC3)ncnc2cc1OCCCN1CCCCC1 | 101%
COc1cc2c(cc1OC)-c1[nH]nc(Nc3cccc(F)c3)c1C2 | 102%
O=c1cc(N2CCOCC2)oc2c(-c3ccccc3)cccc12 | 67.1%
COc1cc2c(Nc3ccc(Br)cc3F)ncnc2cc1OCC1CCN(C)CC1 | 98.5%

Biological target: PRKCB1 (human) (UniProt P05771)
Sequence (P05771 whole entry, looked up): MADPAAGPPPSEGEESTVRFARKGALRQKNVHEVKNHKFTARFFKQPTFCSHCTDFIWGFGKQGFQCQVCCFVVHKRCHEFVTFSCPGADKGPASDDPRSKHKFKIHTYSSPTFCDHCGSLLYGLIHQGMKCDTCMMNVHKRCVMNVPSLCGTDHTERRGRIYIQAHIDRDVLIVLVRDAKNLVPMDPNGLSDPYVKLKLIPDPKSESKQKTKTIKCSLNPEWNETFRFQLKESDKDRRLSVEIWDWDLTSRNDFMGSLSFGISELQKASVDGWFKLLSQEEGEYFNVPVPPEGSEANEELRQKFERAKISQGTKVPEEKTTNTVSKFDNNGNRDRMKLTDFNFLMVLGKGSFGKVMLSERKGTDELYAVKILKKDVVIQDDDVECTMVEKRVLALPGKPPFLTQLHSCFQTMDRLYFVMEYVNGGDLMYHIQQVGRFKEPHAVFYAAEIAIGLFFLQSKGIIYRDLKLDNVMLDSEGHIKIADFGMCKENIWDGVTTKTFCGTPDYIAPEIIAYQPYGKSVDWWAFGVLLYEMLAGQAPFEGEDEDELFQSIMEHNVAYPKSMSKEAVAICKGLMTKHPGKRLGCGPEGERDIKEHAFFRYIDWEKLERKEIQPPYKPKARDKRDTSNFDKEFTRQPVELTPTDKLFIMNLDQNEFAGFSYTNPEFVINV
Assay: as above
Conditions: compound 0.5 µM; ATP 10 µM

Structure (SMILES) | residual activity
COc1cc2c(N3CCN(C(=O)Nc4ccc(OC(C)C)cc4)CC3)ncnc2cc1OCCCN1CCCCC1 | 98.4%
COc1cc2c(cc1OC)-c1[nH]nc(Nc3cccc(F)c3)c1C2 | 96%
O=c1cc(N2CCOCC2)oc2c(-c3ccccc3)cccc12 | 96%
COc1cc2c(Nc3ccc(Br)cc3F)ncnc2cc1OCC1CCN(C)CC1 | 89.1%

Biological target: ROS1 (human) (UniProt P08922)
Assay: as above
Conditions: compound 0.5 µM; ATP 10 µM

Structure (SMILES) | residual activity
COc1cc2c(N3CCN(C(=O)Nc4ccc(OC(C)C)cc4)CC3)ncnc2cc1OCCCN1CCCCC1 | 90.1%
COc1cc2c(cc1OC)-c1[nH]nc(Nc3cccc(F)c3)c1C2 | 97.5%
O=c1cc(N2CCOCC2)oc2c(-c3ccccc3)cccc12 | 98.4%
COc1cc2c(Nc3ccc(Br)cc3F)ncnc2cc1OCC1CCN(C)CC1 | 76.5%

Biological target: RPS6KA1 KD1 KD2 (human) (UniProt Q15418)
Assay: as above
Conditions: compound 0.5 µM; ATP 10 µM

Structure (SMILES) | residual activity
COc1cc2c(N3CCN(C(=O)Nc4ccc(OC(C)C)cc4)CC3)ncnc2cc1OCCCN1CCCCC1 | 94.8%
COc1cc2c(cc1OC)-c1[nH]nc(Nc3cccc(F)c3)c1C2 | 84.1%
O=c1cc(N2CCOCC2)oc2c(-c3ccccc3)cccc12 | 97.3%
COc1cc2c(Nc3ccc(Br)cc3F)ncnc2cc1OCC1CCN(C)CC1 | 102%

Biological target: RPS6KA4 KD2 (human) (UniProt O75676)
Assay: as above
Conditions: compound 0.5 µM; ATP 10 µM

Structure (SMILES) | residual activity
CN[C@@H]1C[C@H]2O[C@@](C)([C@@H]1OC)n1c3ccccc3c3c4c(c5c6ccccc6n2c5c31)C(=O)NC4 | 6.74%
COc1cc2c(N3CCN(C(=O)Nc4ccc(OC(C)C)cc4)CC3)ncnc2cc1OCCCN1CCCCC1 | 120%
COc1cc2c(cc1OC)-c1[nH]nc(Nc3cccc(F)c3)c1C2 | 99.8%
O=c1cc(N2CCOCC2)oc2c(-c3ccccc3)cccc12 | 111%
COc1cc2c(Nc3ccc(Br)cc3F)ncnc2cc1OCC1CCN(C)CC1 | 110%

Biological target: RPS6KA5 KD2 (human) (UniProt O75582)
Assay: as above
Conditions: compound 0.5 µM; ATP 10 µM

Structure (SMILES) | residual activity
CN[C@@H]1C[C@H]2O[C@@](C)([C@@H]1OC)n1c3ccccc3c3c4c(c5c6ccccc6n2c5c31)C(=O)NC4 | 1.24%
COc1cc2c(N3CCN(C(=O)Nc4ccc(OC(C)C)cc4)CC3)ncnc2cc1OCCCN1CCCCC1 | 109%
COc1cc2c(cc1OC)-c1[nH]nc(Nc3cccc(F)c3)c1C2 | 96%
O=c1cc(N2CCOCC2)oc2c(-c3ccccc3)cccc12 | 99.5%
COc1cc2c(Nc3ccc(Br)cc3F)ncnc2cc1OCC1CCN(C)CC1 | 101%

Biological target: SLK (human) (UniProt Q9H2G2)
Assay: as above
Conditions: compound 0.5 µM; ATP 10 µM

Structure (SMILES) | residual activity
COc1cc2c(N3CCN(C(=O)Nc4ccc(OC(C)C)cc4)CC3)ncnc2cc1OCCCN1CCCCC1 | 94.6%
COc1cc2c(cc1OC)-c1[nH]nc(Nc3cccc(F)c3)c1C2 | 95.4%
O=c1cc(N2CCOCC2)oc2c(-c3ccccc3)cccc12 | 102%
COc1cc2c(Nc3ccc(Br)cc3F)ncnc2cc1OCC1CCN(C)CC1 | 73.9%

Biological target: SRPK3 (human) (UniProt Q9UPE1)
Sequence (Q9UPE1 whole entry, looked up): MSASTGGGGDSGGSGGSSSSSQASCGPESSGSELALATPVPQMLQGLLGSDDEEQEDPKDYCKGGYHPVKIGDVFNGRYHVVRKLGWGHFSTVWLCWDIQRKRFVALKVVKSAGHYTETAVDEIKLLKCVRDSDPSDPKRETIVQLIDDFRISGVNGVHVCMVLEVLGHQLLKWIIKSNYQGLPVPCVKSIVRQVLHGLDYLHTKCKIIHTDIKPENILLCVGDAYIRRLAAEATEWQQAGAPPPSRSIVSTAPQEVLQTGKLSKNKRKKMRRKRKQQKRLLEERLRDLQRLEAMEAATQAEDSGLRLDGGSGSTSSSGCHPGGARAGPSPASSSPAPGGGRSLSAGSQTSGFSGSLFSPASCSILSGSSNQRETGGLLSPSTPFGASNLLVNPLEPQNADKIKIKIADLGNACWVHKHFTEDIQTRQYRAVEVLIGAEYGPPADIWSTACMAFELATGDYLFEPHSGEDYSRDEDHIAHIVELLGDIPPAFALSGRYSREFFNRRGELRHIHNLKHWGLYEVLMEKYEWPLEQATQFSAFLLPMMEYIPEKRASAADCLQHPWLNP
Assay: as above
Conditions: compound 0.5 µM; ATP 10 µM

Structure (SMILES) | residual activity
COc1cc2c(N3CCN(C(=O)Nc4ccc(OC(C)C)cc4)CC3)ncnc2cc1OCCCN1CCCCC1 | 102%
COc1cc2c(cc1OC)-c1[nH]nc(Nc3cccc(F)c3)c1C2 | 99.7%
O=c1cc(N2CCOCC2)oc2c(-c3ccccc3)cccc12 | 95.5%
COc1cc2c(Nc3ccc(Br)cc3F)ncnc2cc1OCC1CCN(C)CC1 | 102%

Biological target: STK17A (human) (UniProt Q9UEE5)
Sequence (Q9UEE5 whole entry, looked up): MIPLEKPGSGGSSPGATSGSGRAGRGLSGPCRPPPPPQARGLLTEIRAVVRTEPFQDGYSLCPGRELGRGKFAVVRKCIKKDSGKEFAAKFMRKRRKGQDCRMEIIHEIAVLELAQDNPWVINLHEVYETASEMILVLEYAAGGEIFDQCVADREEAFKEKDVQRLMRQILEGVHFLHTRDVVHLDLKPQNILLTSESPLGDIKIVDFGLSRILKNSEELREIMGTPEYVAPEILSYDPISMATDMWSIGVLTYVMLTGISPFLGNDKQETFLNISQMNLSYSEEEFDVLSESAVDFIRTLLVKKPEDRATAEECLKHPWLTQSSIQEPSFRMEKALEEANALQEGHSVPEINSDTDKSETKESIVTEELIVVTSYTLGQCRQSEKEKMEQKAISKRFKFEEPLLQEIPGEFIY
Assay: as above
Conditions: compound 0.5 µM; ATP 10 µM

Structure (SMILES) | residual activity
COc1cc2c(N3CCN(C(=O)Nc4ccc(OC(C)C)cc4)CC3)ncnc2cc1OCCCN1CCCCC1 | 103%
COc1cc2c(cc1OC)-c1[nH]nc(Nc3cccc(F)c3)c1C2 | 87%
O=c1cc(N2CCOCC2)oc2c(-c3ccccc3)cccc12 | 93.5%
COc1cc2c(Nc3ccc(Br)cc3F)ncnc2cc1OCC1CCN(C)CC1 | 92.4%

Biological target: TAOK3 (human) (UniProt Q9H2K8)
Assay: as above
Conditions: compound 0.5 µM; ATP 10 µM

Structure (SMILES) | residual activity
COc1cc2c(N3CCN(C(=O)Nc4ccc(OC(C)C)cc4)CC3)ncnc2cc1OCCCN1CCCCC1 | 96.8%
COc1cc2c(cc1OC)-c1[nH]nc(Nc3cccc(F)c3)c1C2 | 91.5%
O=c1cc(N2CCOCC2)oc2c(-c3ccccc3)cccc12 | 88.2%
COc1cc2c(Nc3ccc(Br)cc3F)ncnc2cc1OCC1CCN(C)CC1 | 98.4%

Biological target: TXK (human) (UniProt P42681)
Assay: as above
Conditions: compound 0.5 µM; ATP 10 µM

Structure (SMILES) | residual activity
COc1cc2c(N3CCN(C(=O)Nc4ccc(OC(C)C)cc4)CC3)ncnc2cc1OCCCN1CCCCC1 | 105%
COc1cc2c(cc1OC)-c1[nH]nc(Nc3cccc(F)c3)c1C2 | 60.6%
O=c1cc(N2CCOCC2)oc2c(-c3ccccc3)cccc12 | 93.6%
COc1cc2c(Nc3ccc(Br)cc3F)ncnc2cc1OCC1CCN(C)CC1 | 57.5%

Biological target: TYRO3 (human) (UniProt Q06418)
Assay: as above
Conditions: compound 0.5 µM; ATP 10 µM

Structure (SMILES) | residual activity
COc1cc2c(N3CCN(C(=O)Nc4ccc(OC(C)C)cc4)CC3)ncnc2cc1OCCCN1CCCCC1 | 101%
COc1cc2c(cc1OC)-c1[nH]nc(Nc3cccc(F)c3)c1C2 | 97.2%
O=c1cc(N2CCOCC2)oc2c(-c3ccccc3)cccc12 | 107%
COc1cc2c(Nc3ccc(Br)cc3F)ncnc2cc1OCC1CCN(C)CC1 | 33%

Biological target: WNK2 (human) (UniProt Q9Y3S1)
Sequence (Q9Y3S1 whole entry, looked up): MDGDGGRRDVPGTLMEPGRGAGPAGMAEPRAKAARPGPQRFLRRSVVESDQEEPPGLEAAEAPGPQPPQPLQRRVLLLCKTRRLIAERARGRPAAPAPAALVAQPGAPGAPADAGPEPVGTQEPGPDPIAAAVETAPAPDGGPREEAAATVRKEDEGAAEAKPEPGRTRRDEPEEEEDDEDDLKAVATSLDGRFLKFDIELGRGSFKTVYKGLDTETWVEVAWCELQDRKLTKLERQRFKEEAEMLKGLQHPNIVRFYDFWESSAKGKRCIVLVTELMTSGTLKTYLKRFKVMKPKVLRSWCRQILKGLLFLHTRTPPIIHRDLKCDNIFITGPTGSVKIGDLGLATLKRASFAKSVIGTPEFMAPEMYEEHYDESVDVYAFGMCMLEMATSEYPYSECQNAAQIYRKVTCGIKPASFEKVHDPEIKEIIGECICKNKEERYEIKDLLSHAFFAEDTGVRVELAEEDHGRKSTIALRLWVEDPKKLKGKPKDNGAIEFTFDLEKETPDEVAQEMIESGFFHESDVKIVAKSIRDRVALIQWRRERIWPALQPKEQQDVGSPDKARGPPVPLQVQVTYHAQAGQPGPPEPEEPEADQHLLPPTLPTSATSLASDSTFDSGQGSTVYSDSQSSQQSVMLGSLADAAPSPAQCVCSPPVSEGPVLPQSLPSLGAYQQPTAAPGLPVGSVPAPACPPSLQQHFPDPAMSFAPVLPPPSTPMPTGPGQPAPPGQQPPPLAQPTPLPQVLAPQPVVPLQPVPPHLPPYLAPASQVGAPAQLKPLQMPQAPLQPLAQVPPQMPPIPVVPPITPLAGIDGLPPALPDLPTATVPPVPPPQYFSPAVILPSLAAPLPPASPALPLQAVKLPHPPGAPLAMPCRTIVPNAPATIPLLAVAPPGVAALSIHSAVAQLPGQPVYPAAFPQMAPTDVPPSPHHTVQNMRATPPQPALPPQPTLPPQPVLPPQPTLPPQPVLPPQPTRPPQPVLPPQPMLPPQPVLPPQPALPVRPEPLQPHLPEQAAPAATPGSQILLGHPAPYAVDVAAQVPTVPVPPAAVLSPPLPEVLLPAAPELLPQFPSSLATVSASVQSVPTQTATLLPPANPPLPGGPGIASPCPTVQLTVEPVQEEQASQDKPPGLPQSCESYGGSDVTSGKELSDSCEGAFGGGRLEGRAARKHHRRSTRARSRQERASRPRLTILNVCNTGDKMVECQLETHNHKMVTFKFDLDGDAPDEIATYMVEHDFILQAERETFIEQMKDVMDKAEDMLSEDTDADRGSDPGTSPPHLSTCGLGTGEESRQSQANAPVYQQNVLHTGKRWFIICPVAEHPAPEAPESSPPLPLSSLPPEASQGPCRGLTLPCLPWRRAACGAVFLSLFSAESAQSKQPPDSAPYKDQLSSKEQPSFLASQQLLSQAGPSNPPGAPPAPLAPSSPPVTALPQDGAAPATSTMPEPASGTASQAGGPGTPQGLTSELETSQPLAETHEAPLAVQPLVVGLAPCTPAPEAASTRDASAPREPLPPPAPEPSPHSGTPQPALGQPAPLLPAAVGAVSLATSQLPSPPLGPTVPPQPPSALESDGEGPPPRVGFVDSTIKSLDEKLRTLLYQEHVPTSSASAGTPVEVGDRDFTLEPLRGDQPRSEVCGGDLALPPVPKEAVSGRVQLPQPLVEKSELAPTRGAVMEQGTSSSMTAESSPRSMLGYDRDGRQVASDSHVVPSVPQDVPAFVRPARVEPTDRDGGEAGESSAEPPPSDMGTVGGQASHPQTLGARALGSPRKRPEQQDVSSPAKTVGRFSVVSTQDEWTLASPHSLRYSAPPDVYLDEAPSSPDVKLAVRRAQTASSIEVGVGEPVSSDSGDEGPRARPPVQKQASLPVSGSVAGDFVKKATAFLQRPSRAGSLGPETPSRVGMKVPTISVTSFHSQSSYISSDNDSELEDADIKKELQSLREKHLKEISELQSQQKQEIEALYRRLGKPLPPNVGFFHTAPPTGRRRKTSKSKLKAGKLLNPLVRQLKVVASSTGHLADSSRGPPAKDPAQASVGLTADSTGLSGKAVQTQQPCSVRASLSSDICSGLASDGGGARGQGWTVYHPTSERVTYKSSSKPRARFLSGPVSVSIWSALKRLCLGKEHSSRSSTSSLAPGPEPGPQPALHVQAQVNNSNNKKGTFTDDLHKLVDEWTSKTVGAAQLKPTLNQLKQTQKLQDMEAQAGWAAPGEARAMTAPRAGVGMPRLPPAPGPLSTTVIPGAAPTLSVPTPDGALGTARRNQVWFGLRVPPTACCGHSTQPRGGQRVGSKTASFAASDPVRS
Assay: as above
Conditions: compound 0.5 µM; ATP 10 µM

Structure (SMILES) | residual activity
COc1cc2c(N3CCN(C(=O)Nc4ccc(OC(C)C)cc4)CC3)ncnc2cc1OCCCN1CCCCC1 | 97.4%
COc1cc2c(cc1OC)-c1[nH]nc(Nc3cccc(F)c3)c1C2 | 104%
O=c1cc(N2CCOCC2)oc2c(-c3ccccc3)cccc12 | 110%
COc1cc2c(Nc3ccc(Br)cc3F)ncnc2cc1OCC1CCN(C)CC1 | 100%
